# From ChEMBL document CHEMBL6134830, “Naturally inspired chimeric quinolone derivatives to reverse bacterial drug resistance” (Eur J Med Chem, 2025)
# Bridge positions count the residues as written; N and C are the ends. Square brackets hold non-standard residues; d marks the D form. Peptide text beside a SMILES is read from it. * marks the point of attachment. X2 = CC[C@H](C)CCCCC(=O)*; dDab = NCC[C@@H](N)C(=O)O; Dab = NCC[C@H](N)C(=O)O
# Experiments:
# Staphylococcus aureus = experiment: Antimicrobial activity against Staphylococcus aureus ATCC 25923 assessed as inhibition of bacterial growth measured after 20 hrs by CLSI protocol based Muller Hinton broth assay; type: functional
# Cell membrane = experiment: Disruption of cell membrane in methicillin-resistant Staphylococcus aureus assessed as PI-positive bacteria at 8 times MIC measured after 30 mins by PI staining based flow cytometry analysis (reference value: 7.49 %); type: subcellular
MIC (Staphylococcus aureus),Structure (SMILES),Activity (Cell membrane)
> 50 µg/mL,CCCCCCCCCCCCNC(=O)[C@H](CCCCN)NC(=O)[C@H](CCCCN)NC(=O)[C@H](CCCCN)NC(=O)CCC(=O)N1CCN(c2cc3c(cc2F)c(=O)c(C(=O)O)cn3C2CC2)CC1,–
3.12 µg/mL,CCCCCCCCCNC(=O)[C@H](CCCNC(=N)N)NC(=O)[C@H](CCCCN)NC(=O)[C@H](CCCCN)NC(=O)c1ccc(C(=O)N2CCN(c3cc4c(cc3F)c(=O)c(C(=O)O)cn4C3CC3)CC2)cc1,–
25 µg/mL,CCCCCCCCCCCCCCNC(=O)[C@H](CCCCN)NC(=O)c1ccc(C(=O)N2CCN(c3cc4c(cc3F)c(=O)c(C(=O)O)cn4C3CC3)CC2)cc1,–
> 50 µg/mL,CCCCCCCCCNC(=O)[C@H](CCCNC(=N)N)NC(=O)[C@H](CCCNC(=N)N)NC(=O)[C@H](CCCNC(=N)N)NC(=O)c1ccc(C(=O)N2CCN(c3cc4c(cc3F)c(=O)c(C(=O)O)cn4C3CC3)CC2)cc1,–
3.12 µg/mL,CCCCCCCCCCNC(=O)[C@H](CCCCN)NC(=O)[C@H](CCCCN)NC(=O)[C@H](CCCCN)NC(=O)c1ccc(C(=O)N2CCN(c3cc4c(cc3F)c(=O)c(C(=O)O)cn4C3CC3)CC2)cc1,–
6.25 µg/mL,CCCCCCCCCNC(=O)[C@H](Cc1c[nH]cn1)NC(=O)[C@H](CCCCN)NC(=O)[C@H](CCCCN)NC(=O)c1ccc(C(=O)N2CCN(c3cc4c(cc3F)c(=O)c(C(=O)O)cn4C3CC3)CC2)cc1,–
> 50 µg/mL,CCCCCCCCCCCCNC(=O)[C@H](CCCCN)NC(=O)[C@H](CCCCN)NC(=O)[C@H](CCCCN)NC(=O)CCNC(=O)CCC(=O)N1CCN(c2cc3c(cc2F)c(=O)c(C(=O)O)cn3C2CC2)CC1,–
6.25 µg/mL,CCCCCCCCCCCCNC(=O)[C@H](CCCCN)NC(=O)[C@H](CCCCN)NC(=O)[C@H](CCCCN)NC(=O)c1ccc(C(=O)N2CCN(c3cc4c(cc3F)c(=O)c(C(=O)O)cn4C3CC3)CC2)cc1,–
25 µg/mL,CCCCCNC(=O)[C@H](CCCCN)NC(=O)c1ccc(C(=O)N2CCN(c3cc4c(cc3F)c(=O)c(C(=O)O)cn4C3CC3)CC2)cc1,–
25 µg/mL,CCCCCCCCCCCCNC(=O)[C@H](CCCCN)NC(=O)[C@H](CCCCN)NC(=O)c1ccc(C(=O)N2CCN(c3cc4c(cc3F)c(=O)c(C(=O)O)cn4C3CC3)CC2)cc1,–
> 50 µg/mL,CCCCCCCCCCCCCCCCNC(=O)[C@H](CCCCN)NC(=O)[C@H](CCCCN)NC(=O)[C@H](CCCCN)NC(=O)c1ccc(C(=O)N2CCN(c3cc4c(cc3F)c(=O)c(C(=O)O)cn4C3CC3)CC2)cc1,–
50 µg/mL,CCCCCCCCCCCCNC(=O)[C@H](CCCCN)NC(=O)c1ccc(C(=O)N2CCN(c3cc4c(cc3F)c(=O)c(C(=O)O)cn4C3CC3)CC2)cc1,–

# Continued, compound first:
Structure (SMILES),MIC (Staphylococcus aureus),Activity (Cell membrane)
N[C@@H](Cc1c[nH]cn1)C(=O)N1CCN(c2cc3c(cc2F)c(=O)c(C(=O)O)cn3C2CC2)CC1,≥ 12.5 µg/mL,–
NCCCC[C@H](NC(=O)c1ccc(C(=O)N2CCN(c3cc4c(cc3F)c(=O)c(C(=O)O)cn4C3CC3)CC2)cc1)C(=O)NCc1c(F)cccc1Cl,25 µg/mL,–
NCCCC[C@H](NC(=O)c1ccc(C(=O)N2CCN(c3cc4c(cc3F)c(=O)c(C(=O)O)cn4C3CC3)CC2)cc1)C(=O)NCc1ccccc1Cl,25 µg/mL,–
NCCCC[C@H](NC(=O)c1ccc(C(=O)N2CCN(c3cc4c(cc3F)c(=O)c(C(=O)O)cn4C3CC3)CC2)cc1)C(=O)NCc1c(Cl)cccc1Cl,12.5 µg/mL,–
N=C(N)NCCC[C@H](N)C(=O)N1CCN(c2cc3c(cc2F)c(=O)c(C(=O)O)cn3C2CC2)CC1,≥ 12.5 µg/mL,–
CCCCCCCCCC(=O)N[C@@H](CCCCN)C(=O)N1CCN(c2cc3c(cc2F)c(=O)c(C(=O)O)cn3C2CC2)CC1,6.25 µg/mL,–
CC(C)CCCCC(=O)N[C@@H](CCN)C(=O)N[C@H](C(=O)N[C@@H](CCN)C(=O)N[C@H]1CCNC(=O)[C@H]([C@@H](C)O)NC(=O)[C@H](CCN)NC(=O)[C@H](CCN)NC(=O)[C@H](CC(C)C)NC(=O)[C@@H](Cc2ccccc2)NC(=O)[C@@H](CCN)NC1=O)[C@@H](C)O.CC[C@H](C)CCCCC(=O)N[C@@H](CCN)C(=O)N[C@H](C(=O)N[C@@H](CCN)C(=O)N[C@H]1CCNC(=O)[C@H]([C@@H](C)O)NC(=O)[C@H](CCN)NC(=O)[C@H](CCN)NC(=O)[C@H](CC(C)C)NC(=O)[C@@H](Cc2ccccc2)NC(=O)[C@@H](CCN)NC1=O)[C@@H](C)O (X2-[Dab]T[Dab][Dab][dDab][dF]L[Dab][Dab]T; lactam 4-C),–,57.2%
NCCCC[C@H](NC(=O)c1ccc(C(=O)N2CCN(c3cc4c(cc3F)c(=O)c(C(=O)O)cn4C3CC3)CC2)cc1)C(=O)NCc1ccccc1,25 µg/mL,–
CCCCCCCCCCCC(=O)N[C@@H](Cc1c[nH]cn1)C(=O)N1CCN(c2cc3c(cc2F)c(=O)c(C(=O)O)cn3C2CC2)CC1,6.25 µg/mL,–
